According to the NIST ThermoML archive (doi:10.1016/j.jct.2013.10.034):
Numbers after ± are expanded uncertainties.

Experiment: xn = mol fraction of the nth substance listed
Conditions: 100 kPa, Liquid; for viscosity: Falling or rolling sphere viscometry; for mass density: Vibrating tube method

CCCC[N+]1(C)CCCCC1.N#C[N-]C#N [1-butyl-1-methylpiperidinium dicyanamide] + O
Conditions | mass density [kg/m3] | viscosity [mPa·s]
298.15 K, x1 = 0.0936 | 1007.95 ± 0.21 | 6.144 ± 0.98
298.15 K, x1 = 0.1748 | 1011.38 ± 0.21 | 10.16 ± 1.6
298.15 K, x1 = 0.2651 | 1013.31 ± 0.22 | 16.96 ± 2.7
298.15 K, x1 = 0.3581 | 1014.27 ± 0.23 | 24.65 ± 4
298.15 K, x1 = 0.4952 | 1014.9 ± 0.26 | 36.93 ± 5.9
298.15 K, x1 = 0.6246 | 1015.36 ± 0.3 | 49.82 ± 8
298.15 K, x1 = 0.7878 | 1015.65 ± 0.37 | 72.53 ± 12
298.15 K, x1 = 0.9216 | 1015.91 ± 0.45 | 103.3 ± 17
298.15 K, x1 = 1 | 1016.13 ± 0.5 | 123.3 ± 20
303.15 K, x1 = 0.0936 | 1004.63 ± 0.21 | 5.247 ± 0.84
303.15 K, x1 = 0.1748 | 1008.21 ± 0.21 | 8.56 ± 1.4
303.15 K, x1 = 0.2651 | 1010.2 ± 0.22 | 14.05 ± 2.2
303.15 K, x1 = 0.3581 | 1011.26 ± 0.23 | 20.16 ± 3.2
303.15 K, x1 = 0.4952 | 1012.13 ± 0.26 | 29.68 ± 4.8
303.15 K, x1 = 0.6246 | 1012.52 ± 0.3 | 40.79 ± 6.5
303.15 K, x1 = 0.7878 | 1012.82 ± 0.37 | 57.58 ± 9.2
303.15 K, x1 = 0.9216 | 1012.88 ± 0.45 | 79.12 ± 13
303.15 K, x1 = 1 | 1012.98 ± 0.5 | 92.97 ± 15
308.15 K, x1 = 0.0936 | 1001.56 ± 0.21 | 4.529 ± 0.73
308.15 K, x1 = 0.1748 | 1005.06 ± 0.21 | 7.3 ± 1.2
308.15 K, x1 = 0.2651 | 1007.08 ± 0.22 | 11.81 ± 1.9
308.15 K, x1 = 0.3581 | 1008.27 ± 0.23 | 16.78 ± 2.7
308.15 K, x1 = 0.4952 | 1009.31 ± 0.26 | 24.59 ± 3.9
308.15 K, x1 = 0.6246 | 1009.93 ± 0.3 | 32.52 ± 5.2
308.15 K, x1 = 0.7878 | 1010.41 ± 0.37 | 46 ± 7.4
308.15 K, x1 = 0.9216 | 1010.57 ± 0.44 | 64.15 ± 10
308.15 K, x1 = 1 | 1010.65 ± 0.49 | 75.58 ± 12
313.15 K, x1 = 0.0936 | 998.43 ± 0.21 | 3.946 ± 0.63
313.15 K, x1 = 0.1748 | 1001.86 ± 0.21 | 6.291 ± 1
313.15 K, x1 = 0.2651 | 1004.02 ± 0.22 | 10.05 ± 1.6
313.15 K, x1 = 0.3581 | 1005.25 ± 0.23 | 14.16 ± 2.3
313.15 K, x1 = 0.4952 | 1006.34 ± 0.26 | 20.59 ± 3.3
313.15 K, x1 = 0.6246 | 1007.01 ± 0.3 | 27.94 ± 4.5
313.15 K, x1 = 0.7878 | 1007.53 ± 0.37 | 38.87 ± 6.2
313.15 K, x1 = 0.9216 | 1007.8 ± 0.44 | 51.99 ± 8.3
313.15 K, x1 = 1 | 1007.92 ± 0.49 | 60.93 ± 9.8
318.15 K, x1 = 0.0936 | 995.26 ± 0.21 | 3.467 ± 0.56
318.15 K, x1 = 0.1748 | 998.67 ± 0.21 | 5.47 ± 0.88
318.15 K, x1 = 0.2651 | 1000.91 ± 0.22 | 8.651 ± 1.4
318.15 K, x1 = 0.3581 | 1002.25 ± 0.23 | 12.11 ± 1.9
318.15 K, x1 = 0.4952 | 1003.45 ± 0.26 | 17.45 ± 2.8
318.15 K, x1 = 0.6246 | 1004.15 ± 0.29 | 23.32 ± 3.7
318.15 K, x1 = 0.7878 | 1004.74 ± 0.36 | 32.26 ± 5.2
318.15 K, x1 = 0.9216 | 1005.06 ± 0.44 | 42.71 ± 6.9
318.15 K, x1 = 1 | 1005.2 ± 0.49 | 49.79 ± 8
323.15 K, x1 = 0.0936 | 992.05 ± 0.21 | 3.072 ± 0.49
323.15 K, x1 = 0.1748 | 995.43 ± 0.21 | 4.8 ± 0.77
323.15 K, x1 = 0.2651 | 997.8 ± 0.22 | 7.52 ± 1.2
323.15 K, x1 = 0.3581 | 999.24 ± 0.23 | 10.45 ± 1.7
323.15 K, x1 = 0.4952 | 1000.53 ± 0.25 | 14.98 ± 2.4
323.15 K, x1 = 0.6246 | 1001.31 ± 0.29 | 19.5 ± 3.1
323.15 K, x1 = 0.7878 | 1001.95 ± 0.36 | 27.35 ± 4.4
323.15 K, x1 = 0.9216 | 1002.33 ± 0.44 | 35.62 ± 5.7
323.15 K, x1 = 1 | 1002.47 ± 0.48 | 41.31 ± 6.6
328.15 K, x1 = 0.0936 | 988.8 ± 0.21 | 2.741 ± 0.44
328.15 K, x1 = 0.1748 | 992.22 ± 0.21 | 4.249 ± 0.68
328.15 K, x1 = 0.2651 | 994.68 ± 0.22 | 6.592 ± 1.1
328.15 K, x1 = 0.3581 | 996.18 ± 0.23 | 9.141 ± 1.5
328.15 K, x1 = 0.4952 | 997.63 ± 0.25 | 12.99 ± 2.1
328.15 K, x1 = 0.6246 | 998.47 ± 0.29 | 16.43 ± 2.6
328.15 K, x1 = 0.7878 | 999.19 ± 0.36 | 23.47 ± 3.8
328.15 K, x1 = 0.9216 | 999.6 ± 0.43 | 30.08 ± 4.8
328.15 K, x1 = 1 | 999.77 ± 0.48 | 34.72 ± 5.6
333.15 K, x1 = 0.0936 | 985.51 ± 0.21 | 2.461 ± 0.39
333.15 K, x1 = 0.1748 | 988.96 ± 0.21 | 3.788 ± 0.61
333.15 K, x1 = 0.2651 | 991.37 ± 0.22 | 6.05 ± 0.97
333.15 K, x1 = 0.3581 | 993.2 ± 0.23 | 8.041 ± 1.3
333.15 K, x1 = 0.4952 | 994.75 ± 0.25 | 11.37 ± 1.8
333.15 K, x1 = 0.6246 | 995.66 ± 0.29 | 13.93 ± 2.2
333.15 K, x1 = 0.7878 | 996.46 ± 0.36 | 20.41 ± 3.3
333.15 K, x1 = 0.9216 | 996.9 ± 0.43 | 25.64 ± 4.1
333.15 K, x1 = 1 | 997.08 ± 0.48 | 29.45 ± 4.7
338.15 K, x1 = 0.0936 | 982.59 ± 0.21 | 2.223 ± 0.36
338.15 K, x1 = 0.1748 | 985.7 ± 0.21 | 3.407 ± 0.55
338.15 K, x1 = 0.2651 | 988.38 ± 0.22 | 5.181 ± 0.83
338.15 K, x1 = 0.3581 | 990.24 ± 0.23 | 7.12 ± 1.1
338.15 K, x1 = 0.4952 | 991.9 ± 0.25 | 10.04 ± 1.6
338.15 K, x1 = 0.6246 | 992.85 ± 0.29 | 12.9 ± 2.1
338.15 K, x1 = 0.7878 | 993.65 ± 0.36 | 17.17 ± 2.8
338.15 K, x1 = 0.9216 | 994.16 ± 0.43 | 21.35 ± 3.4
338.15 K, x1 = 1 | 994.39 ± 0.48 | –
343.15 K, x1 = 0.0936 | 979.99 ± 0.21 | 2.021 ± 0.32
343.15 K, x1 = 0.1748 | 982.41 ± 0.21 | 3.088 ± 0.49
343.15 K, x1 = 0.2651 | 984.88 ± 0.22 | 4.682 ± 0.75
343.15 K, x1 = 0.3581 | 986.93 ± 0.23 | 6.355 ± 1
343.15 K, x1 = 0.4952 | 988.84 ± 0.25 | 8.928 ± 1.4
343.15 K, x1 = 0.6246 | 990.06 ± 0.29 | 11.72 ± 1.9
343.15 K, x1 = 0.7878 | 990.92 ± 0.36 | 15.74 ± 2.5
343.15 K, x1 = 0.9216 | 991.45 ± 0.43 | 19.52 ± 3.1
343.15 K, x1 = 1 | 991.72 ± 0.48 | 21.98 ± 3.5
